The source of these data is patent US11185531B2, “Arginine methyltransferase inhibitors and uses thereof” (Epizyme, Inc., priority 2013, dated 2021).

By IC50 is commonly meant the concentration that gives 50% inhibition. High values mean a need for much substance, low ones inhibition by little substance. As a reminder, the EC30 is the concentration needed for an effect of 30%.

The structures appear in SMILES notation.

The target in one assay is T1, human PRMT8 (Homo sapiens, UniProt Q9NR22).
T1 construct: Full-length human PRMT8 (NM_019854.4) isoform 1 transcript clone; GST (N, cleaved yes); made in house; host or cells: E. coli BL21(DE3) Gold
In words: PRMT8 Biochemical Assay (3H-SAM Flashplate, peptide substrate). To be noted: 30 min preincubation. The text has this: Peptide representative of human histone H4 residues 31-45 was synthesized with an N-terminal linker-affinity tag motif and a C-terminal amide cap by 21st Century Biochemicals. The peptide was purified by high-performance liquid chromatography (HPLC) to greater than 95% purity and confirmed by liquid chromatography mass spectrometry (LC-MS). The sequence was Biot-Ahx-[…]-amide (SEQ ID NO:8).
The resulting construct encodes an N-terminal GST tag and a thrombin cleavage sequence
GST-tagged PRMT8 was eluted with 50 mM Tris, 2 mM glutathione, pH 7.8. Pooled fractions were cleaved by thrombin (10 U) and dialysed in buffer A. GST was removed by reloading the cleaved protein sample onto glutathione sepharose column and PRMT8 was collected in the flow-through fractions. PRMT8 was purified further by ceramic hydroxyapatite chromatography. The column was washed with 50 mM phosphate buffer, 100 mM NaCl, 5% glycerol, 5 mM 3-mercaptoethanol, pH 7.8 and PRMT8 was eluted by 100 mM phosphate in the same buffer. Protein was concentrated and buffer was exchanged to 50 mM Tris, 300 mM NaCl, 10% glycerol, 5 mM β-mercaptoethanol, pH 7.8 by ultrafiltration. The purity of recovered protein was 89%.
General Procedure for PRMT8 Enzyme Assays on Peptide Substrates.
The assays were all performed in a buffer consisting of 20 mM Bicine (pH=7.6), 1 mM TCEP, 0.005% BSG, and 0.002% Tween 20, prepared on the day of use. Compounds in 100% DMSO (1 ul) were spotted into a polypropylene 384-well V-bottom plates (Greiner) using a Platemate Plus outfitted with a 384-channel head (Thermo Scientific). DMSO (1 ul) was added to Columns 11, 12, 23, 24, rows A-H for the maximum signal control and 1 ul of SAH, a known product and inhibitor of PRMT8, was added to columns 11, 12, 23, 24, rows I-P for the minimum signal control. A cocktail (40 ul) containing the PRMT8 enzyme was added by Multidrop Combi (Thermo-Fisher). The compounds were allowed to incubate with PRMT8 for 30 min at room temperature, then a cocktail (10 ul) containing ^3H-SAM and peptide was added to initiate the reaction (final volume=51 ul). The final concentrations of the components were as follows: PRMT8 was 1.5 nM, ^3H-SAM was 50 nM, non-radiolabeled SAM was 550 nM, peptide was 150 nM, SAH in the minimum signal control wells was 1 mM, and the DMSO concentration was 2%. The assays were stopped by the addition of non-radiolabeled SAM (10 ul) to a final concentration of 400 uM, which dilutes the ^3H-SAM to a level where its incorporation into the peptide substrate is no longer detectable. 50 ul of the reaction in the 384-well polypropylene plate was then transferred to a 384-well Flashplate and the biotinylated peptides were allowed to bind to the streptavidin surface for at least 1 hour before being washed once with 0.1% Tween20 in a Biotek ELx405 plate washer. The plates were then read in a PerkinElmer TopCount plate reader to measure the quantity of ^3H-labeled peptide bound to the Flashplate surface, measured as disintegrations per minute (dpm) or alternatively, referred to as counts per minute (cpm).
Where dpm=disintegrations per minute, cmpd=signal in assay well, and min and max are the respective minimum and maximum signal controls.
Where top and bottom are the normally allowed to float, but may be fixed at 100 or 0 respectively in a 3-parameter fit. The Hill Coefficient normally allowed to float but may also be fixed at 1 in a 3-parameter fit. Y is the % inhibition and X is the compound concentration.

The test system of assay [1] is mono-methyl arginine in RKO cells. In words: RKO Methylation Assay, In Cell Western for mono-methyl arginine. The class given is cell-based. The note with it: Homo sapiens, 72 hours, percent activation of mono-methyl arginine signal. An excerpt: RKO adherent cells were purchased from ATCC (American Type Culture Collection), Manassas, Va., USA. DMEM/Glutamax medium, penicillin-streptomycin, heat inactivated fetal bovine serum, 0.05% trypsin and D-PBS were purchased from Life Technologies, Grand Island, N.Y., USA. Odyssey blocking buffer, 800 CW goat anti-rabbit IgG (H+L) antibody, and Licor Odyssey infrared scanner were purchased from Licor Biosciences, Lincoln, Nebr., USA. Mono-methyl arginine antibody was purchased from Cell Signaling Technology, Danvers, Mass., USA. Methanol was purchased from VWR, Franklin, Mass., USA. 10% Tween 20 was purchased from KPL, Inc., Gaithersburg, Md., USA. DRAQ5 was purchased from Biostatus Limited, Leicestershire, UK.
RKO adherent cells were maintained in growth medium (DMEM/Glutamax medium supplemented with 10% v/v heat inactivated fetal bovine serum and 100 units/mL penicillin-streptomycin) and cultured at 37° C. under 5% CO2.
Cell Treatment, in Cell Western (ICW) for Detection of Mono-Methyl Arginine and DNA Content.
RKO cells were seeded in assay medium at a concentration of 20,000 cells per mL to a poly-D-lysine coated 384 well culture plate (BD Biosciences 356697) with 50 μL per well. Compound (100 nL) from a 96-well source plate was added directly to 384 well cell plate. Plates were incubated at 37° C., 5% CO2 for 72 hours. After three days of incubation, plates were brought to room temperature outside of the incubator for ten minutes and blotted on paper towels to remove cell media. 50 μL of ice cold 100% methanol was added directly to each well and incubated for 30 min at room temperature. After 30 min, plates were transferred to a Biotek EL406 plate washer and washed 2 times with 100 μL per well of wash buffer (IX PBS). Next 60 μL per well of Odyssey blocking buffer (Odyssey Buffer with 0.1% Tween 20 (v/v)) were added to each plate and incubated 1 hour at room temperature. Blocking buffer was removed and 20 μL per well of primary antibody was added (mono-methyl arginine diluted 1:200 in Odyssey buffer with 0.1% Tween 20 (v/v)) and plates were incubated overnight (16 hours) at 4° C. Plates were washed 5 times with 100 μL per well of wash buffer. Next 20 μL per well of secondary antibody was added (1:200 800 CW goat anti-rabbit IgG (H+L) antibody, 1:1000 DRAQ5 (Biostatus limited) in Odyssey buffer with 0.1% Tween 20 (v/v)) and incubated for 1 hour at room temperature. The plates were washed 5 times with 100 μL per well wash buffer then 2 times with 100 μL per well of water. Plates were allowed to dry at room temperature then imaged on the Licor Odyssey machine which measures integrated intensity at 700 nm and 800 nm wavelengths. Both 700 and 800 channels were scanned.
First, the ratio for each well was determined by:
Each plate included fourteen control wells of DMSO only treatment (minimum activation) as well as fourteen control wells for maximum activation treated with 20 μM of a reference compound. The average of the ratio values for each control type was calculated and used to determine the percent activation for each test well in the plate. Reference compound was serially diluted three-fold in DMSO for a total of nine test concentrations, beginning at 20 μM. Percent activation was determined and EC30 curves were generated using triplicate wells per concentration of compound.

T1 sequence (Q9NR22 whole entry, canonical isoform): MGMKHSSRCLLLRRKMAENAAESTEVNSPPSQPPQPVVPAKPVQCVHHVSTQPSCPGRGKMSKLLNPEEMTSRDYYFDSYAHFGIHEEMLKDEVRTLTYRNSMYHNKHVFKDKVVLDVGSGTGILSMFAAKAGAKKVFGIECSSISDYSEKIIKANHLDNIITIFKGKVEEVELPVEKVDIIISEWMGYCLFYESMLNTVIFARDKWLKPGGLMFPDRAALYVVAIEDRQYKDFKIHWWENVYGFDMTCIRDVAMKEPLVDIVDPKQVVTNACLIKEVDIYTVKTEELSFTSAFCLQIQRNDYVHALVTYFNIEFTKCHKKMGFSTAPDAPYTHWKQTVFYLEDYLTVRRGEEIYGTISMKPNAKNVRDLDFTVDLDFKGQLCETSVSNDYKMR

For the compound `CNCCN(C)Cc1c[nH]nc1C#Cc1cccc(OC)c1` [Compound 1], on human PRMT8, the IC50 was 101 to 1000 nM.
The same measure, in the same setting: the value for `CNCCN(C)Cc1c[nH]nc1C#Cc1ccc(C(C)(C)C)cc1` [Compound 2] was 101 to 1000 nM; that for `CNCCN(C)Cc1c[nH]nc1C#Cc1ccccc1` [Compound 3] was 101 to 1000 nM; that for `CNCCN(C)Cc1c[nH]nc1C#Cc1ccc(F)cc1` [Compound 4] was 101 to 1000 nM.
Consider `CNCCN(C)Cc1c[nH]nc1/C=C/c1ccc(-c2ccccc2)cc1` [Compound 5], for which the half-inhibitory concentration (IC50) at human PRMT8 is 101 to 1000 nM.
On the same count and under the same terms, in the case of `CNCCN(C)Cc1c[nH]nc1/C=C/c1ccc(C(F)(F)F)cc1` [Compound 6] it was 101 to 1000 nM; in that of `CNCCN(C)Cc1c[nH]nc1/C=C/c1ccc(OC)cc1` [Compound 7], 101 to 1000 nM; in that of `Cc1ccc(/C=C/c2n[nH]cc2CN(C)CCN)cc1` [Compound 8], 101 to 1000 nM.
In turn, `CN(CCN)Cc1c[nH]nc1C1=CCOCC1` [Compound 10] had a half-inhibitory concentration (IC50) against human PRMT8 of 1010 to 3000 nM. The same compound returned a 30% effect concentration (EC30) in assay [1] greater than 12000 nM.
Take `COc1cc(/C=C/c2n[nH]cc2CN(C)CCN)cc(OC)c1` [Compound 11]: the half-maximal inhibitory concentration (IC50) on human PRMT8 lay within 101 to 1000 nM.
The compound `CN(CCN)Cc1c[nH]nc1/C=C/c1ccc(F)cc1F` [Compound 13] came in with a concentration for half-maximal inhibition (IC50) against human PRMT8 of 101 to 1000 nM.
`CN(CCN)Cc1c[nH]nc1/C=C/c1cc(C(F)(F)F)cc(C(F)(F)F)c1` [Compound 14] displayed an IC50 on human PRMT8 of 101 to 1000 nM.
Same read-out and setting: the value for `CN(CCN)Cc1c[nH]nc1/C=C/c1cc(F)cc(F)c1` [Compound 15] was 101 to 1000 nM; that for `CN(CCN)Cc1c[nH]nc1/C=C/c1cccc(C(F)(F)F)c1` [Compound 16] was 101 to 1000 nM; that for `COc1cccc(/C=C/c2n[nH]cc2CN(C)CCN)c1` [Compound 17] was 101 to 1000 nM.
On the same count and under the same terms, in the case of `CN(CCN)Cc1c[nH]nc1/C=C/c1ccc(C(F)(F)F)cc1` [Compound 18] it was less than 100 nM; in that of `COC/C=C/c1n[nH]cc1CN(C)CCN` [Compound 19], 1010 to 3000 nM; in that of `CN(CCN)Cc1c[nH]nc1/C=C/c1cccc(F)c1` [Compound 20], 101 to 1000 nM.
At human PRMT8, `CC(C)c1n[nH]cc1CN(C)CCN` [Compound 21] displayed an IC50 of 3010 to 10000 nM. This compound also registered an EC30 in assay [1] greater than 12000 nM.
In the case of `CN(CCN)Cc1c[nH]nc1C1CCCCC1` [Compound 22], on human PRMT8, the concentration for half-maximal inhibition (IC50) was 101 to 1000 nM. The concentration for an effect of 30% (EC30) in assay [1] is less than 3000 nM.
The corresponding values for `CN(CCN)Cc1c[nH]nc1CCc1ccc(F)cc1` [Compound 23, N^1-((3-(4-fluorophenethyl)-1H-pyrazol-4-yl)methyl)-N^1-methylethane-1,2-diamine] are 101 to 1000 nM and less than 3000 nM.
The like results for `CN(CCN)Cc1c[nH]nc1/C=C/Cc1ccccc1` [Compound 24] were, in that order, 101 to 1000 nM and less than 3000 nM.
In the case of `CN(CCN)Cc1c[nH]nc1C1=CCCC1` [Compound 25], the half-inhibitory concentration (IC50) against human PRMT8 fell in the range of 1010 to 3000 nM. Moreover, the EC30 in assay [1] is 3010 to 12000 nM.
`CN(CCN)Cc1c[nH]nc1C1CCC1` [Compound 26] gave a 50% inhibitory concentration (IC50) at human PRMT8 of 3010 to 10000 nM. For the same compound, the EC30 in assay [1] was greater than 12000 nM.
In turn, `CC(C)Cc1n[nH]cc1CN(C)CCN` [Compound 28, N^1-((3-iso-butyl-1H-pyrazol-4-yl)methyl)-N^1-methylethane-1,2-diamine] returned an IC50 on human PRMT8 of 1010 to 3000 nM.
As to `CCCc1n[nH]cc1CN(C)CCN` [Compound 29], the half-inhibitory concentration (IC50) at human PRMT8 lay in the range of 1010 to 3000 nM. The compound further came in with an EC30 in assay [1] greater than 12000 nM.
The corresponding values for `Cc1n[nH]cc1CN(C)CCN` [Compound 30] are 3010 to 10000 nM and greater than 12000 nM.
The like results for `CN(CCN)Cc1c[nH]nc1C1CCCC1` [Compound 31] were, in that order, greater than 10000 nM and greater than 12000 nM.
The like results for `CNCCN(C)Cc1c[nH]nc1C1CCN(C(=O)Cc2ccccc2)CC1` [Compound 32] were, in that order, 1010 to 3000 nM and less than 3000 nM.
In turn, `CN(CCN)Cc1n[nH]cc1C1CCCCC1` [Compound 33] came in with an IC50 against human PRMT8 of 101 to 1000 nM. For the same compound, the EC30 in assay [1] is 3010 to 12000 nM.
The corresponding values for `CNCCN(C)Cc1c[nH]nc1C1CCN(C(=O)C(C)C)CC1` [Compound 34] are 101 to 1000 nM and less than 3000 nM.
Compound `CC1CCC(c2c[nH]nc2CN(C)CCN)CC1` (stereo not drawn) [Compound 35] came in with a concentration for half-maximal inhibition (IC50) against human PRMT8 of 101 to 1000 nM. Besides, in assay [1], the EC30 was less than 3000 nM.
The like results for `CN(CCN)Cc1n[nH]cc1C1CCC(C)(C)CC1` [Compound 36] were, in that order, 101 to 1000 nM and less than 3000 nM.
The corresponding values for `CC1CCC(c2n[nH]cc2CN(C)CCN)CC1` (stereo not drawn) [Compound 37, N^1-methyl-N^1-((3-(4-methylcyclohexyl)-1H-pyrazol-4-yl)methyl)ethane-1,2-diamine] are 101 to 1000 nM and less than 3000 nM.
The corresponding values for `CN(CCN)Cc1c[nH]nc1C1CCC(C)(C)CC1` [Compound 38, N^1-((3-(4,4-dimethylcyclohexyl)-1H-pyrazol-4-yl)methyl)-N^1-methylethane-1,2-diamine] are 101 to 1000 nM and less than 3000 nM.
At human PRMT8, `CNCCN(C)Cc1c[nH]nc1C1CCN(CC(C)C)CC1` [Compound 39, N^1-((3-(1-isobutylpiperidin-4-yl)-1H-pyrazol-4-yl)methyl)-N^1,N^2-dimethylethane-1,2-diamine] came in with an IC50 of 101 to 1000 nM. In addition, in assay [1], the 30% effect concentration (EC30) was less than 3000 nM.
The like results for `CNCCN(C)Cc1c[nH]nc1C1CCN(C)CC1` [Compound 41] were, in that order, 3010 to 10000 nM and greater than 12000 nM.
In assay [1], `CN(CCN)Cc1n[nH]cc1C1CCC(N2CCOCC2)CC1` (stereo not drawn) [Compound 44, N^1-methyl-N^1-((4-(4-morpholinocyclohexyl)-1H-pyrazol-3-yl)methyl)ethane-1,2-diamine] gave an EC30 of 3010 to 12000 nM.
